Like-named read-outs stand apart in the source and are kept apart here.
Molecular target: human 5-HT2A receptor (Homo sapiens, UniProt P28223)
Assay: Human 5-HT2A functional FLIPR assay (agonist mode)
Format: cell-based
Design: expressed in transfected cells
Settings: for RFU@10 μM: FLIPR, h5-HT2A, curve fitting with activation (%) @ 10 mM with RFU (footnote)
Procedure: The potential excitatory effects of compounds targeting on human 5-hydroxytryptamine receptor 2A (5-HT2A) under agonist mode was assessed.
HTR2A&Gα15-HEK293 cells were cultured in DMEM medium containing 10% dialyzed FBS and 1×penicillin-streptomycin, 100 μg/mL Hygromycin B and 300 μg/mL G418. The cells were passaged about three times a week, maintained between ~30% to ~90% confluence.
• 1. The cell culture medium (DMEM medium containing 10% dialyzed FBS and 1×penicillin-streptomycin, 100 μg/mL Hygromycin B and 300 μg/mL G418), TrypLE™ Express and DPBS to R.T. was warmed in advance. • 2. For induction, 1 μg/ml tetracycline (final concentration) was added to cell culture medium and incubated for 48 hours prior to seeding cells into plate at 37° C., 5% (v/v) CO2. The cell culture medium was removed from flask. Cells were washed with DPBS. • 3. 2 mL TrypLE™ Express was added to the flask, mixed well by gentle shaking and cells were incubated at 37° C. for a few minutes. • 4. The cells were checked for morphological change under microscope, the digestion was stopped by adding 4 mL cell culture medium to the flask when most of cells turned to round. • 5. The cell suspension was transferred into a 15 mL centrifuge tube, and then centrifuged at 1,200 rpm for 5 minutes. • 6. The supernatant was removed. The cell pellet was resuspended with 2 mL cell culture medium. • 7. The cell density was counted using cell counter. Only cells with >85% viability were used for the assay. • 8. Cells were diluted to 6.67×10^5/mL with cell culture medium. • 9. 30 μL/well cell suspensions added into a 384-well cell plate (The cell density was 20,000 cells/well). • 10. The cell plate was incubated overnight at 37° C., 5% (v/v) CO2.
On the day of experiments, culture medium was removed from the cell plate.
10 μL of assay buffer (20 mM HEPES, in 1×HBSS, pH 7.4) was added to each well of the cell plate.
2×dye solution was prepared following the manual of the FLIPR® Calcium 6 Assay Kit: • i. The dye was diluted with assay buffer. • ii. Probenecid was added to the final concentration of 5 mM. • iii. Vortexed vigorously for 1-2 minutes. • 4. 10 μL of 2×dye solution was added to each well of the cell plate • 5. The cell plate was placed on plate shaker, followed by shaking at 600 rpm for 2 minutes. • 6. The plate was incubated at 37° C. for 2 hours followed by an additional 15-minute incubation at 25° C. 2.4 Prepare 3×compound • 1. Serotonin HCl was prepared to the concentration of 10 mM with DMSO. • 2. The test compounds were prepared to the concentration of 10 mM with DMSO. • 3. The compounds were added to a 384-well compound source plate. • 4. 3-folds serial dilutions were performed with DMSO. • 5. 90 nL/well of serial diluted compounds was transferred from source plate to a 384-well compound plate by using an Echo. • 6. 30 μL/well of assay buffer (20 mM HEPES in 1×HBSS, pH 7.4) was added to the compound plate. • 7. The plate was mixed on-plate shaker for 2 minutes.
• 1. After the cells were incubated with dye solution, the cell plate, compound plate containing 3×compounds and FLIPR tips were placed into FLIPR. • 2. 10 μL of 3×compounds transferred from the compound plate to the cell plate by FLIPR. • 3. The plate was read for 160 sec with 1 sec interval and the data of agonist mode was obtained.
• 1. The normalized fluorescence reading (RFU) was calculated as shown below, wherein Fmax and Fmin stand for maximum and minimum of calcium signal during defined time window:
[formula] • 2. EC50 by fitting RFU against log of compound concentrations with Hill equation was calculated using XLfit.

[1] = FLIPR agonist mode, HTR2A&Gα15-HEK293 cells, ND: not detected, read-out: h5-HT2A, EC50

Sequence of human 5-HT2A receptor (P28223 whole entry): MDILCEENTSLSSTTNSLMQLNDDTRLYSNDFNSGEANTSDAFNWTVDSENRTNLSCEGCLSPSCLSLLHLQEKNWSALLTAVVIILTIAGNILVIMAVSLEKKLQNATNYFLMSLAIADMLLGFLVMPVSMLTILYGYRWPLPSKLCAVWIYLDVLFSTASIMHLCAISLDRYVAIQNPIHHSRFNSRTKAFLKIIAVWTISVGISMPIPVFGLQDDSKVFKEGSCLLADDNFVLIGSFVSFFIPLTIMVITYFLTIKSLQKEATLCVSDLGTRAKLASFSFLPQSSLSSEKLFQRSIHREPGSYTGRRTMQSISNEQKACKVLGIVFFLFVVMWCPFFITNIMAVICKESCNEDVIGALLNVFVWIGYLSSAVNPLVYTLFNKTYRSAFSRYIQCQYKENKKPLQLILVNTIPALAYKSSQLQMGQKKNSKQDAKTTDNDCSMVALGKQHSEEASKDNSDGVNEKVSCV

How did the EC50 turn out when CN1CCC[C@@H]1Cc1c[nH]c2cccc(O)c12 [Compound 10, (R)-3-((1-methylpyrrolidin-2-yl)methyl)-1H-indol-4-ol] was run?
Its EC50 is 47 nM.

And the “RFU@10 μM” value?
The value was 2929 RFU.

[2H]C([2H])(c1c[nH]c2cccc(O)c12)[C@H]1CCCN1C([2H])([2H])[2H] [Compound 13, (R)-3-((1-(methyl-d3)pyrrolidin-2-yl)methyl-d2)-1H-indol-4-ol] was tested. Which EC50 did it give?
The EC50 was 44 nM.

What about the “RFU@10 μM” value of the same molecule?
Its value is 3108 RFU.

Which “RFU@10 μM” value does the source give for CN(C)CCc1c[nH]c2cccc(O)c12 [Psilocin, 4-hydroxy-N,N-dimethyltryptamine, reference compound] here?
The value was 308 RFU.

[2H]C([2H])(c1c[nH]c2cccc(OC(=O)CCCC(=O)Oc3cccc4[nH]cc(C([2H])([2H])[C@H]5CCCN5C([2H])([2H])[2H])c34)c12)[C@H]1CCCN1C([2H])([2H])[2H] [Compound I-22, bis(3-(((R)-1-(methyl-d3)pyrrolidin-2-yl)methyl-d2)-1H-indol-4-yl) glutarate] was tested. Which EC50 [1] did it give?
The EC50 was 13.1 nM.

And the “RFU@10 μM” value?
The value was 5409 RFU.

CN1CCC[C@@H]1Cc1c[nH]c2cccc(OC(=O)CCCC(=O)Oc3cccc4[nH]cc(C[C@H]5CCCN5C)c34)c12 [Compound I-13, Bis(3-(((R)-1-methylpyrrolidin-2-yl)methyl)-1H-indol-4-yl) glutarate] was tested. Which EC50 [1] did it give?
The EC50 was 32.3 nM.

And the “RFU@10 μM” value?
Its value is 3887 RFU.
